The results in this text go back to patent US7407946B2, “Quinazoline compounds” (AstraZeneca AB, priority 2002, dated 2008).

The target in one assay is T1, Aurora-A (Homo sapiens, UniProt O14965).
T1 construct: 6 histidine residues, spacer region and rTEV protease cleavage site (pFastBac HTc) (N); made in house; host or cells: Spodoptera frugiperda Sf21 insect cells (baculovirus)
T1 sequence (O14965 1-403): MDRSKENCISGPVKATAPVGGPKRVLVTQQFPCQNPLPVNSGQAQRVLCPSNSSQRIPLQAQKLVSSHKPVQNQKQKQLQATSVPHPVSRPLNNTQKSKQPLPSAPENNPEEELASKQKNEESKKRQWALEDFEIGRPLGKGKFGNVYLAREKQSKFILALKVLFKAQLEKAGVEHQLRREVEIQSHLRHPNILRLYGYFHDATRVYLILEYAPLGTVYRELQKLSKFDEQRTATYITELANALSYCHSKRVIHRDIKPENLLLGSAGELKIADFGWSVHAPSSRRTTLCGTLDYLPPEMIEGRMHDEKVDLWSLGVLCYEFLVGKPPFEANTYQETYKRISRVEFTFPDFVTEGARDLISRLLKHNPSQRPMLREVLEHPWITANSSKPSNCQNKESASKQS
In words: In vitro Aurora-A kinase inhibition test. In kind it is biochemical.

The target of another assay is T2, Aurora-B (Homo sapiens, UniProt Q96GD4).
T2 construct: 6-histidine; made in house; host or cells: Spodoptera frugiperda Sf21 insect cells (baculovirus)
T2 sequence (Q96GD4 whole entry): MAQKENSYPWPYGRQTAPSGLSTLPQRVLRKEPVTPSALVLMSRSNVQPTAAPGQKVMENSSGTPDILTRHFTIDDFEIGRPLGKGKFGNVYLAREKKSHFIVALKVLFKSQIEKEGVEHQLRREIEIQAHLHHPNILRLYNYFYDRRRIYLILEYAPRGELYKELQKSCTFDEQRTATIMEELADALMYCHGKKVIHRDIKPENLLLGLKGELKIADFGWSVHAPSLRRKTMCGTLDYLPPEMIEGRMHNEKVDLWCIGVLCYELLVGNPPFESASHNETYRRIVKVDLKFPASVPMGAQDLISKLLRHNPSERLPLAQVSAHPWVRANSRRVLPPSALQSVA
Put plainly: In vitro Aurora-B kinase inhibition test. In kind it is biochemical. Particulars: recombinant Aurora-B, [γ33P]ATP, peptide substrate, 60 minutes at room temperature; read-out: concentration giving 50% inhibition of enzyme activity. An excerpt:
(b) In Vitro Aurora-B Kinase Inhibition Test
This assay determines the ability of a test compound to inhibit serine-threonine kinase activity. DNA encoding Aurora-B may be obtained by total gene synthesis or by cloning. This DNA may then be expressed in a suitable expression system to obtain polypeptide with serine-threonine kinase activity. In the case of Aurora-B, the coding sequence was isolated from cDNA by polymerase chain reaction (PCR) and cloned into the pFastBac system in a manner similar to that described above for Aurora-A (i.e. to direct expression of a 6-histidine tagged Aurora-B protein).
For the large scale expression of Aurora-B kinase activity, Sf21 insect cells were grown at 28° C. in TC100 medium supplemented with 10% foetal calf serum (Viralex) and 0.2% F68 Pluronic (Sigma) on a Wheaton roller rig at 3 r.p.m. When the cell density reached 1.2×10^6 cells ml^−1 they were infected with plaque-pure Aurora-B recombinant virus at a multiplicity of infection of 1 and harvested 48 hours later. All subsequent purification steps were performed at 4° C. […]

A further assay concerns SW620. Put plainly: In vitro cell proliferation assay (BrdU incorporation). In kind it is cell-based. The note with it: Homo sapiens, SW-620; SW620, 48 hours with compound, 2 hour BrdU labelling; read-out: active at (concentration giving 50% inhibition of BrdU incorporation). An excerpt:
(c) In Vitro Cell Proliferation Assay
This and other assays can be used to determine the ability of a test compound to inhibit the growth of adherent mammalian cell lines, for example the human tumour cell line SW620 (ATCC CCL-227). This assay determines the ability of at test compound to inhibit the incorporation of the thymidine analogue, 5′-bromo-2′-deoxy-uridine (BrdU) into cellular DNA. SW620 or other adherent cells were typically seeded at 1×10^5 cells per well in L-15 media (GIBCO) plus 5% foetal calf serum, 1% L-glutamine (100 μl/well) in 96 well tissue culture treated 96 well plates (Costar) and allowed to adhere overnight. […] The optical density of the wells was then determined at 690 nm wavelength using a Titertek Multiscan plate reader. […]
A general note: Uptake of a labelled nucleoside into DNA is a usual measure of proliferation.

The next assay has as its system SW620 cells. Put plainly: In vitro cell cycle analysis assay. It counts as cell-based, human. Particulars: 24 hours with compound, DNA content by FACS. Here is the method:
(d) In Vitro Cell Cycle Analysis Assay
This assay determines the ability of a test compound to arrest cells in specific phases of the cell cycle. Many different mammalian cell lines could be used in this assay and SW620 cells are included here as an example. SW620 cells were seeded at 7×10^5 cells per T25 flask (Costar) in 5 ml L-15 (5% FCS, 1% L-glutamine). Flasks were then incubated overnight in a humidified 37° C. incubator with 5% CO2. The following day, 5 μl of L-15 (5% FCS, 1% L-glutamine) carrying the appropriate concentration of test compound solubilised in DMSO was added to the flask. A no compound control treatments was also included (0.5% DMSO). The cells were then incubated for a defined time (24 hours) with compound. […]
Each sample was then syringed 10 times using 21-guage needle. The samples were then transferred to LPS tubes and DNA content per cell analysed by Fluorescence activated cell sorting (FACS) using a FACScan flow cytometer (Becton Dickinson). Typically 30,000 events were counted and recorded using CellQuest v1.1 software (Verity Software). Cell cycle distribution of the population was calculated using Modfit software (Verity Software) and expressed as percentage of cells with 2N (G0/G1), 2N-4N (S phase) and with 4N (G2/M) DNA content.
(In general: In flow cytometry, cells or beads pass a laser one at a time.)

Turning to `COc1cc2c(Nc3ncc(CC(=O)Nc4cccc(F)c4)s3)ncnc2cc1OCCCN1CCC[C@@H]1COP(=O)(O)O` [Compound 2, ((2R)-1-(3-((4-((5-(2-((3-fluorophenyl)amino)-2-oxoethyl)-1,3-thiazol-2-yl)amino)-6-methoxyquinazolin-7-yl)oxy)propyl)pyrrolidin-2-yl)methyl dihydrogen phosphate], the IC50 is 10.2 nM against Aurora-A, 9 nM at Aurora-B and 6 nM with SW620. Also, in the assay on SW620 cells, the “active at (cell cycle analysis, arrest of cells in specific phases)” value came out at 20 nM.
